Measurements as given in US6235771A, “Anilide derivative, production and use thereof” (Takeda Chemical Industries, Ltd., priority 1998, dated 2001).

How the values were obtained:
human CCR5 = target: T1, human CCR5 (Homo sapiens, UniProt P51681); experiment: Inhibition of [125I]-RANTES binding to human CCR5 in CHO/CCR5 cells (CCR5 antagonistic activity); conditions: Test Compound 1 μM, 100 pM [125I]-RANTES, room temperature, 40 minutes, read-out: Inhibition Rate (CCR5 binding)
T1 construct: expressed in transfected cells; host or cells: CHO-K1 cells, electroporated with plasmid pCKR5 (pcDNA3.1 backbone), geneticin-selected (CHO/CCR5)
Description: Cloning of CCR5 gene was carried out by PCR (polymerase chain reaction) from human spleen cDNA. With using 0.5 ng of spleen cDNA (Toyobo, QUICK-Clone cDNA) as template, PCR was performed in DNA Thermal Cycler 480 (Perkin-Elmer) (reaction conditions: 30 cycles of 95° C. for 1 minute, 60° C. for 1 minute, and 75° C. for 5 minutes) by adding primer set, 5'-[…]-3' (25 pmol) and 5'-[…]-3' (25 pmol), which were designed referring to nucleotide sequence of CCR5 gene reported by Samson et al. (Biochemistry, 35(11), 3362-3367 (1996)) and by using TaKaRa EX Taq (TakaraShuzo). The resultant PCR product was subjected to agarose gel. electrophoresis to collect about 1.0 kb DNA fragment, which was subjected to Original TA Cloning Kit (Funakoshi) to carry out cloning of CCR5 gene.
The plasmid obtained in the above (1) was digested with restriction enzymes XbaI (Takara Shuzo) and BamHI (Takara Shuzo) and subjected to agarose gel electrophoresis to collect about 1.0 kb DNA fragment. The DNA fragment was mixed with plasmid pcDNA3.1 (Funakoshi) for expression in animal cells, said plasmid being digested with XbaI and BamHI, and they were ligated with DNA Ligation Kit Ver.2 (Takara Shuzo). The resulting plasmid was subjected to transformation of competent cell of E. coli JM109 (Takara Shuzo) to obtain plasmid pCKR5.
CHO-K1 cells were grown in 750 ml of tissue culture flask (Becton Dickinson) using Ham's F12 medium (Nihon Pharmaceutical) containing 10% fetal calf serum (Life Tech Oriental) and took off with 0.5 g/L trypsin-0.2 g/L EDTA (Life Tech Oriental). The cells were washed with PBS (Life Tech Oriental), centrifuged (1000 rpm, 5 minutes), and suspended in PBS. With using Gene Pulser (Bio-Rad Laboratories), DNA was introduced into the cells under the conditions shown below. That is, to the cuvette of 0.4 cm gap were added 8×10^6 cells and 10 μg of plasmid pCKR5 for expression of human CCR5, and electroporation was carried out under 0.25 kV of voltage and 960 μF of capacitance. The cells were transferred into Ham's F12 medium (Nihon Pharmaceutical) containing 10% fetal calf serum, and cultivated for 24 hours. The cells were again took off and centrifuged, and suspended in Ham's F12 medium (Nihon Pharmaceutical) containing 10% fetal calf serum and 500 μg/ml of geneticin (Life Tech Oriental). The suspension was diluted to give 10^4 cells/ml of the suspension, which was inoculated on 96 well plate (Becton Dickinson) to give geneticin resistant cells. The resulting geneticin resistant cells were cultivated in 96 well plate (Becton Dickinson), and cells expressing CCR5 were selected from the geneticin resistant cells. That is, in assay buffer (Ham's F12 medium containing 0.5% BSA and 20 mM HEPES (Wako Pure Chemical, pH7.2) to which was added 200 pM of [^125 I]-RANTES (Amersham) as ligand, binding reaction was carried out at room temperature for 40 minutes, and the buffer was washed with cooled PBS. To the buffer was added 50 μl/well of 1M NaOH, and the mixture was stirred. Radioactivity was determined with γ-counter to select CHO/CCR5 cells which specifically bind to the ligand.
The CHO/CCR5 were inoculated on 96 well microplate (5×10^4 cells/well) and cultivated for 24 hours. The medium was removed by means of suction, and to each well was added assay buffer containing Test Compound (1 μM) and then 100 pM of [^125 I]-RANTES (Amersham) as ligand. Binding assay was carried out at room temperature for 40 minutes, and assay buffer was removed by means of suction. Each well was washed twice with cooled PBS, and 200 μl of Microscint-20 (Packard Instrument, Inc.) was added to each well. Radio-activity was determined with Top-Count Micro Scintillation Counter (Packard Instrument, Inc.).
According to the method described above, inhibition rate of Test Compound (whose number is referred to in the following Examples) to CCR5 binding.

HIV-1 BA-L = experiment: Inhibitory effect on HIV-1 infection to MAGI-CCR5 cell (β-galactosidase activity); type: cell-based; conditions: 100 μl of medium containing 1.6 μM Test Compound plus 100 μl of medium containing 300PFU HIV-1 BA-L; MAGI-CCR5 cells; 37° C., 2 days
Description: The plasmid where β-galactosidase gene was ligated downstream of HIV-1 LTR was introduced into CD4 positive HeLa cell, to which human CCR5 was further introduced to obtain transformant MAGI-CCR5. By using said transformant MAGI-CCR5, degree of HIV-1 infection was calculated from β-galactosidase activity (blue color due to decomposition of 5-bromo-4-chloro-3-indolyl-β-D-galactopyranoside). Specifically, MAGI-CCR5 cells were suspended in DMEM medium containing 10% serum to prepare 5×10^4 cells/ml suspension. To each well of 96 well plate was inoculated 200 μl of the suspension, and the cells were cultivated at 37° C. overnight. The medium was removed by means of suction, and to the residue was added 100 μl of the above medium containing 1.6 μM of Test Compound and 100 μl of the above medium containing 300PFU of HIV-1 BA-L cells. The cells were cultivated at 37° C. for 2 days. The medium was removed by means of suction. To the residue was added 200 μl of cell fixative (PBS containing 1% formaldehyde and 0.2% glutaraldehyde), and the mixture was allowed to stand at room temperature for 5 minutes and washed twice with PBS. To the mixture was added 100 μl of staining solution (PBS containing […] and 0.4 mg/ml X-gal), and the mixture was allowed to stand at 37° C. for 50 minutes and washed twice with PBS. The number of blue cells was counted by microscope and defined as the number of cells infected with HIV-1. According to this method, inhibition rate on HIV-1 infection was determined.

T1 sequence (P51681 whole entry): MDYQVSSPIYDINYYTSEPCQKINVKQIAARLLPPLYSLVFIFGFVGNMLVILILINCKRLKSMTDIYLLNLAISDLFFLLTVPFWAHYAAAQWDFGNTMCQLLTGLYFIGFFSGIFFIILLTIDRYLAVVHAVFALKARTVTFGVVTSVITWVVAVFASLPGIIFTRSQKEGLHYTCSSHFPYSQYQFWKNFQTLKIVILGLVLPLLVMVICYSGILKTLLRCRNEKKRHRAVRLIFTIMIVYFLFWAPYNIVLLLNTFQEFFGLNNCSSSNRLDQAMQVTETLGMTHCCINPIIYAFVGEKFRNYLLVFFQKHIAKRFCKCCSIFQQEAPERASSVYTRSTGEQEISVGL

CCCCOCCOc1ccc(-c2ccc3c(c2)C=C(C(=O)Nc2ccc(CN(C)C4CCOCC4)cc2)CCS3(=O)=O)cc1 [Compound 98, 7-[4-(2-butoxyethoxy)phenyl]-N-[4-[[N-methyl-N-(tetrahydropyran-4-yl)amino]methyl]phenyl]-1,1-dioxo-2,3-dihydro-1-benzothiepine-4-carboxamide]
inhibition at 1 µM (human CCR5): 98%
Inhibition Rate (HIV-1 infection) (HIV-1 BA-L): 91%
